# From patent publication US20230141101A1, “PDE4 INHIBITOR COMPOUND AND MEDICAL USE THEREOF” (Suzhou Longbotai Pharmaceuticals Co., Ltd., priority 2020, published 2023)
# Key:
# Type in all cases: biochemical
# Conditions in all cases: 20 nM
# PDE4D2 = PDE4D2 (Homo sapiens, UniProt Q08499); assay: PDE4 inhibitory activity assay (FAM-cAMP enzymatic reaction), PDE4D2
# How it was run: (§1)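 Inhibition rates from a fluorescence read gave IC50 values. Each enzyme (PDE4A1A, PDE4B1, PDE4D2) sat with compound for 15 min at room temperature; FAM-cAMP then started a 30 min room-temperature reaction, ended with stop solution and left 60 min more.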
# PDE4A1A = target: T1, PDE4A1A (Homo sapiens, UniProt P27815); assay: PDE4 inhibitory activity assay (FAM-cAMP enzymatic reaction), PDE4A1A
# T1 construct: purchased BPS 60040
# T1 sequence (P27815 1-647 isoform P27815-4): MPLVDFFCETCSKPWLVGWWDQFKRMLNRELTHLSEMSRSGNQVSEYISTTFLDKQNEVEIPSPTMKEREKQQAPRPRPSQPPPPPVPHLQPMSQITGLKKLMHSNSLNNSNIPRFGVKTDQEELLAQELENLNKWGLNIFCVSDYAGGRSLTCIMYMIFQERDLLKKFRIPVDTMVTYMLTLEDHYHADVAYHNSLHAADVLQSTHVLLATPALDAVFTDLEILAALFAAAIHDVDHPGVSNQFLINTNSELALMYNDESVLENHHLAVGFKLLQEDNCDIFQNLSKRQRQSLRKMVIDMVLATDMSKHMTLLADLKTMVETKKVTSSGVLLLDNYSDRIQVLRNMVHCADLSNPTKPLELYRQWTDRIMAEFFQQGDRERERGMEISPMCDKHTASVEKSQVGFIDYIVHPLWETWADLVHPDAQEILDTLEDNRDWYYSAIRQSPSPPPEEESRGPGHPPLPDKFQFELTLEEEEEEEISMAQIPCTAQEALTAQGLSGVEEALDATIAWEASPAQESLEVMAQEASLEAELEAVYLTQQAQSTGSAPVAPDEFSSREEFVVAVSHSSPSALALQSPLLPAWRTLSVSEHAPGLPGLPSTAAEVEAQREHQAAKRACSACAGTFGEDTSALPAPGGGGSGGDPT
# How it was run: as §1
# PDE4B1 = target: T2, PDE4B1 (Homo sapiens, UniProt Q07343); assay: PDE4 inhibitory activity assay (FAM-cAMP enzymatic reaction), PDE4B1
# T2 construct: purchased BPS 60041
# T2 sequence (Q07343 whole entry): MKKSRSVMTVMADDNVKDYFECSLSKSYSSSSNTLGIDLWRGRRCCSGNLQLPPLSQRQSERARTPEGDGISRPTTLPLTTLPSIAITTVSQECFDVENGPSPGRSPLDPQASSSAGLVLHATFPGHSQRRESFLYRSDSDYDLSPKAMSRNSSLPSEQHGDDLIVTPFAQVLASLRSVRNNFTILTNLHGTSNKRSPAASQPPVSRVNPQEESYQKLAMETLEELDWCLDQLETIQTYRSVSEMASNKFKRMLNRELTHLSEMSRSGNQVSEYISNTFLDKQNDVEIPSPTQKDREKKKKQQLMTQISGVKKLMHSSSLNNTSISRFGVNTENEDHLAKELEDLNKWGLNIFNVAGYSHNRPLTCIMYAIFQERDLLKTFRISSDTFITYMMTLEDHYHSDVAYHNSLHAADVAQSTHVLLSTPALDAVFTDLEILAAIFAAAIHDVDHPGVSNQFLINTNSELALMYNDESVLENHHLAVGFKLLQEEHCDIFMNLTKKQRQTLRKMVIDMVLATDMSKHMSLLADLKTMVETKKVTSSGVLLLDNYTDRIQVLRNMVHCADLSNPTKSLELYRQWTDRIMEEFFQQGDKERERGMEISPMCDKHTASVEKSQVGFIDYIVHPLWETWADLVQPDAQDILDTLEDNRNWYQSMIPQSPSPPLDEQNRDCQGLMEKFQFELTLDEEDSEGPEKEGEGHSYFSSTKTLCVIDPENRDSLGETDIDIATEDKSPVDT
# How it was run: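 Each isoform is incubated with test compound for 15 min at room temperature before FAM-cAMP substrate starts a 30-min reaction.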
# Sequence of PDE4D2 (Q08499 303-809): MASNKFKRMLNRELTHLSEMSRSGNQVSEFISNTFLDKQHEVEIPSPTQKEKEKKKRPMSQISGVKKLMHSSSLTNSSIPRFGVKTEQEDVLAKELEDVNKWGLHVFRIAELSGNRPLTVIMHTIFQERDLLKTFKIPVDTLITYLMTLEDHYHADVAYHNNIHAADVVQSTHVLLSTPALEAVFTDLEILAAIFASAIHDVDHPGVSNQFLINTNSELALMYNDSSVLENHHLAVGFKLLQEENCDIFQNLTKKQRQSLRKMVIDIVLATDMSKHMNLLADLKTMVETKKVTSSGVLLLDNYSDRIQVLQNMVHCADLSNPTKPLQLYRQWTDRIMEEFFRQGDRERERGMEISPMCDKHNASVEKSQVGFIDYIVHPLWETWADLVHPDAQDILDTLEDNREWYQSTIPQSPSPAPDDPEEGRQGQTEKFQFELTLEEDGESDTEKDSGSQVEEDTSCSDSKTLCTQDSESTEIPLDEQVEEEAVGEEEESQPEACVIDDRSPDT
PDE4 D2 inhibitory effect at 20 nM (PDE4D2),PDE4 A1 inhibitory effect at 20 nM (PDE4A1A),PDE4 B1 inhibitory effect at 20 nM (PDE4B1),SMILES
+,+,+,"CCOc1nc([C@@H](CS(C)(=O)=O)N2C(=O)c3csc(NC(=O)CN(CC)CC)c3C2=O)ccc1OC [Ex. 229, (S)-2-(diethylamino)-N-(5-(1-(6-ethoxy-5-methoxypyridin-2-yl)-2-(methylsulfonyl)ethyl)-4,6-dioxo-5,6-dihydro-4H-thieno[3,4-c]pyrrol-1-yl)acetamide]"
+,+,+,"CCOc1nc([C@@H](CS(C)(=O)=O)N2C(=O)c3csc(NC(=O)CN4CCCCC4)c3C2=O)ccc1OC [Ex. 230, (S)—N-(5-(1-(6-ethoxy-5-methoxypyridin-2-yl)-2-(methylsulfonyl)ethyl)-4,6-dioxo-5,6-dihydro-4H-thieno[3,4-c]pyrrol-1-yl)-2-(piperidin-1-yl)acetamide]"
+,+,+,"CCOc1nc([C@@H](CS(C)(=O)=O)N2C(=O)c3csc(NC(=O)CN4CCCC4)c3C2=O)ccc1OC [Ex. 231, (S)—N-(5-(1-(6-ethoxy-5-methoxypyridin-2-yl)-2-(methylsulfonyl)ethyl)-4,6-dioxo-5,6-dihydro-4H-thieno[3,4-c]pyrrol-1-yl)-2-(pyrrolidin-1-yl)acetamide]"
